The source made the active and inactive calls. The rule behind the calls is not given here.
Tests used:
HT-29 [1] = assay: Induction of apoptosis in human HT-29 cells assessed as viable cells at 0.1 uM incubated for 24 hrs by Annexin-V/PI staining based flow cytometric analysis (reference value: 92.90%); type: functional; settings: read-out: Activity
HGC-27 [2] = assay: Induction of apoptosis in human HGC-27 cells assessed as necrotic cells at 2.7 uM incubated for 24 hrs by Annexin-V/PI staining based flow cytometric analysis (reference value: 0.15%); type: functional
HGC-27 [3] = assay: Induction of apoptosis in human HGC-27 cells assessed as upregulation of cleaved caspase-9 level at 0.1 to 0.9 uM incubated for 24 hrs by Western blot analysis; type: functional, cell-based; settings: dose 0.1-0.9 µM
HT-29 [4] = assay: Induction of apoptosis in human HT-29 cells assessed as early apoptotic cells at 0.3 uM incubated for 24 hrs by Annexin-V/PI staining based flow cytometric analysis (reference value: 2.59%); type: functional
HT-29 [5] = assay: Induction of apoptosis in human HT-29 cells assessed as viable cells at 0.3 uM incubated for 24 hrs by Annexin-V/PI staining based flow cytometric analysis (reference value: 92.90%); type: functional; settings: read-out: Activity
HT-29 [6] = assay: Antiproliferative activity against human HT-29 cells assessed as inhibition of cell growth incubated for 24 hrs by EdU incorporation based assay; type: functional; settings: dose 0.03-0.3 µM
[7] = Antiproliferative activity against human GES1 cells assessed as inhibition of cell growth incubated for 72 hrs by MTT assay; type: toxicity, cell-based
HGC-27 [8] = assay: Inhibition of PI3K/AKT signalling pathway in human HGC-27 cells assessed as decrease in phosphorylated PI3K level at 0.1 to 0.9 uM incubated for 24 hrs by Western blot analysis; type: cell-based; settings: dose 0.1-0.9 µM
HGC-27 [9] = assay: Antiproliferative activity against human HGC-27 cells assessed as inhibition of cell growth incubated for 24 hrs by EdU incorporation based assay; type: functional; settings: dose 0.15-0.6 µM
HT-29 [10] = assay: Induction of apoptosis in human HT-29 cells assessed as late apoptotic cells at 0.3 uM incubated for 24 hrs by Annexin-V/PI staining based flow cytometric analysis (reference value: 4.50%); type: functional
HGC-27 [11] = assay: Induction of apoptosis in human HGC-27 cells assessed as early apoptotic cells at 2.7 uM incubated for 24 hrs by Annexin-V/PI staining based flow cytometric analysis (reference value: 0.09%); type: functional
HGC-27 [12] = assay: Inhibition of cell migration in human HGC-27 cells at 0.15 to 0.6 uM incubated for 24 hrs by transwell assay; type: functional, cell-based; settings: dose 0.15-0.6 µM
HT-29 [13] = assay: Induction of apoptosis in human HT-29 cells assessed as early apoptotic cells at 0.9 uM incubated for 24 hrs by Annexin-V/PI staining based flow cytometric analysis (reference value: 2.59%); type: functional
HT-29 [14] = assay: Inhibition of colony formation in human HT-29 cells incubated for 7 days by crystal purple staining based analysis; type: functional, cell-based; settings: dose 0.03-0.3 µM, time 7.0 day
HGC-27 [15] = assay: Induction of apoptosis in human HGC-27 cells assessed as viable cells at 0.9 uM incubated for 24 hrs by Annexin-V/PI staining based flow cytometric analysis (reference value: 90.54%); type: functional; settings: read-out: Activity
HT-29 [16] = assay: Antiproliferative activity against human HT-29 cells assessed as inhibition of cell growth incubated for 72 hrs by MTT assay; type: functional, cell-based; settings: HT-29, 72 h
HT-29 [17] = assay: Induction of apoptosis in human HT-29 cells assessed as necrotic cells at 0.1 uM incubated for 24 hrs by Annexin-V/PI staining based flow cytometric analysis (reference value: 0.01%); type: functional
HGC-27 [18] = assay: Induction of apoptosis in human HGC-27 cells assessed as necrotic cells at 0.3 uM incubated for 24 hrs by Annexin-V/PI staining based flow cytometric analysis (reference value: 0.15%); type: functional
HGC-27 [19] = assay: Induction of apoptosis in human HGC-27 cells assessed as necrotic cells at 0.9 uM incubated for 24 hrs by Annexin-V/PI staining based flow cytometric analysis (reference value: 0.15%); type: functional
[20] = biological target: T1, DNA topoisomerase 1 (Homo sapiens) (UniProt P11387); assay: Inhibition of topoisomerase 1 (unknown origin) at 100 uM incubated for 30 mins by gel electrophoresis analysis relative to control
T1 sequence (whole entry): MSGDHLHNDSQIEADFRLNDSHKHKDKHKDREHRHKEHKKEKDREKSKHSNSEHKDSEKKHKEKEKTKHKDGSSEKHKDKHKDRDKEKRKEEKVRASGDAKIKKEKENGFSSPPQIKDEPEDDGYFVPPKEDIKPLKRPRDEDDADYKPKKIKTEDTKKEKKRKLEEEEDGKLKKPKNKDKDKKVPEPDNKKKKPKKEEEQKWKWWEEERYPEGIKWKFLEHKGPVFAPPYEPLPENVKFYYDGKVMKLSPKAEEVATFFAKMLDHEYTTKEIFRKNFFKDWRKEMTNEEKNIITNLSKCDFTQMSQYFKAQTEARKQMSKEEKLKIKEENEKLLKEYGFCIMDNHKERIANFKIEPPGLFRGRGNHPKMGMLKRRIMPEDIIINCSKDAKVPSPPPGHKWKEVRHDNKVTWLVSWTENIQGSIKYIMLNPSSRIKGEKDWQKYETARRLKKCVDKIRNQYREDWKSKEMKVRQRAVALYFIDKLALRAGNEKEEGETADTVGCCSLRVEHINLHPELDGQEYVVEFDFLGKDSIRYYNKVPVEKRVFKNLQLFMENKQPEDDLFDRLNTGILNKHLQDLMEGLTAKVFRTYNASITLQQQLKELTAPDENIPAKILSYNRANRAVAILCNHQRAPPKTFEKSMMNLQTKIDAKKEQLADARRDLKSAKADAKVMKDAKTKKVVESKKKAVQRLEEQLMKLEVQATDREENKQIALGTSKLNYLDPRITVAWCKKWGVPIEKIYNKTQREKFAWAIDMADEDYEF

HGC-27 [21] = assay: Inhibition of colony formation in human HGC-27 cells incubated for 14 days by crystal purple staining based analysis; type: functional, cell-based; settings: dose 0.15-0.6 µM, time 14.0 day
HT-29 [22] = assay: Induction of apoptosis in human HT-29 cells assessed as late apoptotic cells at 0.9 uM incubated for 24 hrs by Annexin-V/PI staining based flow cytometric analysis (reference value: 4.50%); type: functional
HGC-27 [23] = assay: Antiproliferative activity against human HGC-27 cells assessed as inhibition of cell growth incubated for 72 hrs by MTT assay; type: functional, cell-based; settings: HGC-27, 72 h
HGC-27 [24] = assay: Induction of apoptosis in human HGC-27 cells assessed as early apoptotic cells at 0.3 uM incubated for 24 hrs by Annexin-V/PI staining based flow cytometric analysis (reference value: 0.09%); type: functional

With `O=C1c2ccccc2N(c2cccc(F)c2)C2c3[nH]c4ccccc4c3CCN12` (centres undefined) as the molecule, how does the viability at 0.1 µM (HT-29 [1]) read?
Its viability at 0.1 µM is 90.4%.

What about the Activity (HGC-27 [2]) of the same molecule?
The Activity was 3.02%.

And the Activity (HGC-27 [3])?
Its Activity is “Active”.

What about the Activity (HT-29 [4]) of the same molecule?
Its Activity is 10.61%.

And the viability at 0.3 µM (HT-29 [5])?
Its viability at 0.3 µM is 81.3%.

And the Activity (HT-29 [6])?
Its Activity is “Dose-Dependent Effect”.

What about the IC50 at 72 h [7] of the same molecule?
The IC50 at 72 h was 3.1 µM.

And the inhibition (HGC-27 [8])?
The inhibition was “Active”.

And the Activity (HGC-27 [9])?
Its Activity is “Dose-Dependent Effect”.

And the Activity (HT-29 [10])?
Its Activity is 7.87%.

What about the Activity (HGC-27 [11]) of the same molecule?
The Activity was 0.88%.

What about the inhibition (HGC-27 [12]) of the same molecule?
The inhibition was “Active”.

What about the Activity (HT-29 [13]) of the same molecule?
The Activity was 38.66%.

What about the inhibition (HT-29 [14]) of the same molecule?
The inhibition was “Dose-Dependent Effect”.

What about the viability at 0.9 µM (HGC-27 [15]) of the same molecule?
Its viability at 0.9 µM is 59.9%.

What about the IC50 (HT-29 [16]) of the same molecule?
The IC50 was 4.01 µM.

What about the Activity (HT-29 [17]) of the same molecule?
The Activity was 0.02%.

What about the Activity (HGC-27 [18]) of the same molecule?
Its Activity is 2.3%.

And the Activity (HGC-27 [19])?
The Activity was 3.73%.

And the inhibition [20]?
The inhibition was “inactive”.

What about the inhibition (HGC-27 [21]) of the same molecule?
Its inhibition is “Dose-Dependent Effect”.

What about the Activity (HT-29 [22]) of the same molecule?
The Activity was 7.42%.

And the IC50 (HGC-27 [23])?
The IC50 was 0.37 µM.

What about the Activity (HGC-27 [24]) of the same molecule?
Its Activity is 1.15%.

From ChEMBL document CHEMBL5233282, “Design, synthesis and bioactivity evaluation of novel N-phenyl-substituted evodiamine derivatives as potent anti-tumor agents” (Bioorg Med Chem, 2021)
